In patent US7723289B2, “PIF tetrapeptides” (BioIncept, LLC, priority 2003, dated 2010):

Tests used:
[1] = system: PBMC; assay: PIF-1 effects on cytokine expression in patient and control PBMC (Table 7); assay type: cell-based, human; conditions: for TH1/TH2 change in parentheses: PHA + PIF-115 + vs PHA + alone; for IL-10 / TH1/TH2 / TNFα: PHA +, PIF-115 +
[2] = system: PBMC; assay: PIF and analogues on release of cytokines +/- platebound mAbCD3 (Table 4); assay type: cell-based; parameters: IL-1β / TNFa / IL-4 / IL-5 / IL-6 / IL-10 / GM-CSM / IFN-g: unit not given here
[3] = system: CD3; assay: CD3 expression in PBMC (flow cytometry, MAbCD3-PE); assay type: cell-based; conditions: PBMC exposed 3 days, 2-200 nM
Method: Fluorescent PIF peptides bind to immune cell membranes following activation. […] CD69 is expressed during activation of lymphocytes and monocytes, and is a marker of NK cells activation. CD25 is the receptor for IL-2, and a known activation marker as well. […] The expression of CD3 in PBMC was examined following exposure for 3 days to sPIF-1(15) (SEQ ID NO:13) (2-200 nM) using 20 ul MAbCD3-PE (BD).

[4] = system: PIF-1 polyclonal antibody; assay: PIF-1 competitive ELISA, biotin labeled versus unlabeled peptide; assay type: binding, rabbits; conditions: 4.5 ug/ml pAb coating concentration; read-out: IC50 of dose response curve
[5] = system: PBMC; assay: FITC-labeled PIF binding to PBMC subpopulations (flow cytometry); parameters: species or system human
Method: Expression of PIF-1(15) (SEQ ID NO:1), receptor following PHA induced PBMC proliferation CD-4 T cells; CD-8 T cells; NK cell and B cells (unstimulated-top); (PHA stimulated-bottom). Flow cytometry analysis of PBMC following exposure to FITC sPIF-1(15) (SEQ ID NO:13) % expression was determined in PBMC subtypes before and after exposure to 1 ug/ml PHA for 24 hours.
Human PBMC were isolated by the Ficoll method. FITC-labeled nPIF-115 (SEQ ID NO: 1) and (FITC)-labeled scrPIF-1 (SEQ ID NO:5) and match-size irrelevant peptide (FITC)-labeled negative controls negPIF-1(15) (SEQ ID NO:11), were dissolved in PBS at concentrations ranging from 0.75 to 48.19 μM, and were incubated with 500,000 lymphocytes for 1 h at room temperature. The cells were washed 6 times with PBS and resuspended in 500 μl of the same buffer. T-cells and monocytes identification was performed in independent experiments by incubation with anti-CD3 and anti-CD14 antibody-phycoerithryn (PE) labeled. nPIF-115 (SEQ ID NO: 1) binding to PBMC was determined by flow cytometry. In addition, rosettes formed by T cell-platelets were detected by flow cytometry using anti-CD3 antibody-PE and anti-CD41a antibody-FITC (all antibodies were from Pharmingen Inc.).
Using flow cytometry fluoroscein-labeled sPIF-115 (SEQ ID NO: 13) binding to immune cells was examined on resting PBMC.

[6] = system: T cells
Method: We have examined using calcium mobilization in T cells which is central to T-Cell activation initiated by antigen presentation to the T-Cell Receptor (TCR) antigen whether PIF-1 acts through mobilization of Ca++flux. Activation of T-cells was carried out by using phorbal ester (PMA) and Ca2+ ionomycin both of which synergize through two different signaling pathways the former through Protein Kinase C, while the later through Tyrosine Kinases. […] We have also looked at Tcell activation using PHA.
Calcium channel analysis method: 2E6 freshly isolated PBMC in RPMI1640+10% FBS (HI) and equilibrated for 24 hours. Cells are loaded with a proprietary dye that fluorescence when bound with Ca++. PIF-11 or 50 nM as well as 1-50 nM scrPIF-1 were added prior to inducing the cells with PMA/ionomycin or PHA20 ug/ml or vehicle 0.005% DMSO. PIF-1 treated cells are loaded into the Flexstation and the inducer is added robotically with a liquid handler. At a precise time fluorescence monitoring commences. CA++ mobilization involves initially at least sequestered within organelles to the cytoplasm where it binds with the dye and produces a fluorescent signal.

[7] = PBMC within 24 hrs of PHA activation

With MVRIKPGSANKPSDD [sPIF-1(15)] the “TH1/TH2 change in parentheses” value ([1]; control) was −19%, the IL-10 ([1]; control) was 28.18 % of total PBMC in scatter gate and the TH1/TH2 ([1]; control) was 0.55. For the same sequence, the TNFα ([1]; control) was 15.46 % of total PBMC in scatter gate, the “TH1/TH2 change in parentheses” value ([1]; patient) was “+32%” and the IL-10 ([1]; patient) was 24.32 % of total PBMC in scatter gate. For the same sequence, the TH1/TH2 ([1]; patient) was 0.75, the TNFα ([1]; patient) was 18.32 % of total PBMC in scatter gate and the GM-CSM ([2]; C- (platebound mAbCD3), /1) was 20.7. The IFN-g ([2]; C- (platebound mAbCD3), /1) was 122.6, the IL-1β ([2]; C- (platebound mAbCD3), /1) was 3.4 and the IL-2 ([2]; C- (platebound mAbCD3), /1) was 21.4. The IL-4 ([2]; C- (platebound mAbCD3), /1) was 17.2, the IL-5 ([2]; C- (platebound mAbCD3), /1) was 0 and the IL-6 ([2]; C- (platebound mAbCD3), /1) was 204.2. The IL-8 ([2]; C- (platebound mAbCD3), /1) was over 5000, the IL-10 ([2]; C- (platebound mAbCD3), /1) was 72.9 and the TNFa ([2]; C- (platebound mAbCD3), /1) was 135.7. The GM-CSM ([2]; C- (platebound mAbCD3), /50) was 29.1, the IFN-g ([2]; C- (platebound mAbCD3), /50) was 130.3 and the IL-1β ([2]; C- (platebound mAbCD3), /50) was 4.4. For the same sequence, the IL-2 ([2]; C- (platebound mAbCD3), /50) was 31.0, the IL-4 ([2]; C- (platebound mAbCD3), /50) was 17.9 and the IL-5 ([2]; C- (platebound mAbCD3), /50) was 0. For the same sequence, the IL-6 ([2]; C- (platebound mAbCD3), /50) was 287.7, the IL-8 ([2]; C- (platebound mAbCD3), /50) was over 5000 and the IL-10 ([2]; C- (platebound mAbCD3), /50) was 77.0. For the same sequence, the TNFa ([2]; C- (platebound mAbCD3), /50) was 223.5, the GM-CSM ([2]; U- (no mAbCD3), /1) was 12.5 and the IFN-g ([2]; U- (no mAbCD3), /1) was 0. The IL-1β ([2]; U- (no mAbCD3), /1) was 0, the IL-2 ([2]; U- (no mAbCD3), /1) was 19.9 and the IL-4 ([2]; U- (no mAbCD3), /1) was 0. For the same sequence, the IL-5 ([2]; U- (no mAbCD3), /1) was 0, the IL-6 ([2]; U- (no mAbCD3), /1) was 32.2 and the IL-8 ([2]; U- (no mAbCD3), /1) was 963.0. The IL-10 ([2]; U- (no mAbCD3), /1) was 0, the TNFa ([2]; U- (no mAbCD3), /1) was 0 and the GM-CSM ([2]; U- (no mAbCD3), /50) was 0. The IFN-g ([2]; U- (no mAbCD3), /50) was 0, the IL-1β ([2]; U- (no mAbCD3), /50) was 0 and the IL-2 ([2]; U- (no mAbCD3), /50) was 0. It also gave an IL-4 ([2]; U- (no mAbCD3), /50) of 0, an IL-5 ([2]; U- (no mAbCD3), /50) of 0 and an IL-6 ([2]; U- (no mAbCD3), /50) of 37.8. The IL-8 ([2]; U- (no mAbCD3), /50) was 1426.7, the IL-10 ([2]; U- (no mAbCD3), /50) was 0 and the TNFa ([2]; U- (no mAbCD3), /50) was 0. The “increase in CD3 receptor expression” value [3] was 215-420%, the IC50 [4] was 0.5 to 0.7 nM and the “fluorescence-labeled peptide binding to human lymphocytes” value ([5]; FIG. 1(A)) was “dose dependent manner”. The “B cells positive for fluorescent PIF binding” value [5, 7] was over 90%, the “T lymphocytes positive for fluorescent PIF binding” value [5, 7] was 60-80% and the binding to platelets ([5]; basal state) was “not to platelets”. The binding to monocytes ([5]; basal state, unstimulated PBMC) was “binds all monocytes”, the “binding to NK cells” value ([5]; even after several days in culture with PHA) was “did not appear to bind” and the “binding site expression on resting T cells (CD4+, CD8+), B cells (CD19+), NK cells (CD56)” value ([5]; resting PBMC) was “very low”. The “PHA stimulation of Ca2+ influx” value ([6]; PHA activated T cells) was “does not show any inhibition” and the “Ca++ mobilization” value ([6]; PMA and ionomycin activated T-cells, 1 nM-50 uM) was “did not affect”.
